Results from patent US20110027296A1, “ANTIBODIES FOR TREATING CANCER” (UNIVERSIDAD DE BARCELONA, priority 2008, published 2011).
Bridge positions count the residues as written; N and C are the ends. Square brackets hold non-standard residues; d marks the D form. Peptide text beside a SMILES is read from it. * marks the point of attachment. NH(β-GlcNAc) = CC(=O)N[C@@H]1[C@@H](O)[C@H](O)[C@@H](CO)O[C@H]1N*; Dap = NC[C@H](N)C(=O)O

Key:
MDA-MB-231 = settings: cytostatic and not cytotoxic effect; cited from earlier work
BCC = settings: 1 nM antagonist; cited from earlier work
EGFR = EGFR phosphorylation by Western blot in MDA-MB-468 cells; type: cell-based; settings: MDA-MB-468, 100 nM SP, time course
Description: FIG. 8A: to analyze the effects of SP on EGFR activation MDA-MB-468 cell line was treated with SP at 100 nM for the indicated times (in min). The levels of phospho-EGFR and phospho-Erk were determined by Western blot analysis. FIG. 8B: The effects of the inhibition of SP in the activation of EGFR were determined as for HER2. C means control.
For the analysis of substance P treatment on HER2 and EGFR activation, cells were seeded on dishes and growth until 80% confluence. After 24 hours of fetal deprivation, cells were treated at the indicated times with 100 nM SP. Cells were wash two times with cold PBS and rapidly frozen in a −80° C. freezer until protein extraction. […]
(§1) For protein extraction cells were lysated in ice-cold radioimmunoprecipitation assay buffer (Tris-HCl 50 mM, pH 7.4; NP-40 1%; Na-deoxycholate, 0.25%, NaCl 150 mM; EDTA 1 mM; PMSF 1 mM; proteinase inhibitors; Na3VO4 1 mM and NaF 1 mM) and sonicated for 10 seconds. After centrifugation (13000 g 5 min) supernatants were quantified for protein content. […] Chemiluminiscence of the bands was detected after ECL treatment (Amersham, Piscataway, N.J.) of membranes and subsequent analysis using a Fujifilm LAS3000 imaging system. Different intensities of bands were quantified using Image Gauge software, and correct Mr was compared with pre-stained protein standards (BioRad).

[1] = tested on: cyclin D1, cdk4, cdk2, p21 and p27; assay: Cell cycle protein expression by Western blot; type: cell-based; settings: 100 nM SP or antibody 1/100 dilution; indicator of proliferative rate
Description: FIG. 1A: For the study of the effect of SP and its inhibition on cell cycle protein expression, cells were treated with 100 nM of SP or antibody anti-SP at 1/100 dilution for 48 hours. The different pattern of protein expression was determined by Western blot. C (control), SP, αSP (anti-SP antibody). FIG. 1B: For the time-course studies cells were treated at the same concentration of antibody for the times indicated. FIG. 1C: The ratio between p27/cyclin D1 (y-axis) was determined as an indicator of the proliferative rate of the cells.
For the analysis of substance P treatment on HER2 and EGFR activation, cells were seeded on dishes and growth until 80% confluence. […]
as §1

HER2 = HER2 phosphorylation and expression by Western blot in breast cancer cell lines; type: cell-based; settings: SP 100 nM, FIG. 5
Description: In FIG. 5A, to analyze the effects of SP on HER2 activation different BC cell lines were treated with SP at 100 nM for the indicated times (in min). […] In FIG. 5B, for the dose-response study MDA-MB-453 cell line was treated at different times (minutes, x-axis) with 100, 200 or 500 nM of SP, and then activation of HER2 was determined. The results are expressed as a percentage of control (y-axis), and every experiment was done in duplicate.
In FIG. 6A cells were treated with 500 nM of SP or anti-SP antibody at 1/100 dilution for 48 hours, and the levels of the different proteins determined by Western blot. C means control. […] In FIG. 6B for the time-course studies, SKBR3 and BT474 cell lines were treated with anti-SP antibody for 24, 48 and 72 hours and protein analyzed by Western blot. […]
For protein extraction cells were lysated in ice-cold radioimmunoprecipitation assay buffer (Tris-HCl 50 mM, pH 7.4; NP-40 1%; Na-deoxycholate, 0.25%, NaCl 150 mM; EDTA 1 mM; PMSF 1 mM; proteinase inhibitors; Na3VO4 1 mM and NaF 1 mM) and sonicated for 10 seconds. After centrifugation (13000 g 5 min) supernatants were quantified for protein content. […] Chemiluminiscence of the bands was detected after ECL treatment (Amersham, Piscataway, N.J.) of membranes and subsequent analysis using a Fujifilm LAS3000 imaging system. […]

Compound: Cc1ccc(CC(=O)N(C)[C@H](Cc2ccc3ccccc3c2)C(=O)N[C@@H]2CCCC[C@@H]2NC(=O)c2c[nH]c3ccccc23)cc1 [MEN 11467]
- proliferation of tumor cell line MDA-MB-231 (MDA-MB-231): induced an inhibition of proliferation

Compound: CC(=O)NC1(c2ccccc2)CCN(CC[C@H](CN(C)C(=O)c2ccccc2)c2ccc(Cl)c(Cl)c2)CC1 [SR 48968]
- reduction of BCC colony formation (BCC): 60%

Compound: CC(=O)N[C@@H]1[C@@H](O)[C@H](O)[C@@H](CO)O[C@H]1NC(=O)C[C@@H]1NC(=O)[C@H](CC(C)C)NC(=O)[C@@H]2CNC(=O)C[C@H](NC1=O)C(=O)N[C@@H](Cc1c[nH]c3ccccc13)C(=O)N[C@@H](Cc1ccccc1)C(=O)N2 [MEN 11420] (cyclo(D(NH(β-GlcNAc))DWF[Dap]L); lactam 2-5)
- proliferation of tumor cell line MDA-MB-231 (MDA-MB-231): induced an inhibition of proliferation

Compound: Arg-Pro-Lys-Pro-Gln-Gln-Phe-Phe-Gly-Leu-Met [substance P]
- activation of EGFR (phospho-EGFR) (EGFR): Activation of EGFR was observed at 2 min, with a second activation point at minute 6
- p27/cyclin D1 ratio [1]: caused a decrease in p27/cyclin D1 ratio
- transactivation of HER2 (HER2): induces transactivation of HER2
